Values belong to the compound of their own block, whether it stands above or below them.
Assays:
[1] = tested on: caspase-3/7 activity in hiPSCs; assay: High-content analysis of caspase-3/7 activation in hiPSCs; format: cell-based, human; settings: 4-h exposure
Method: To study caspase activation, the cells were exposed to the test compounds for 4 h and then incubated with 3–5 µM CellEvent™ Caspase-3/7 Green Detection Reagent solution in PBS with 5% FBS for 50 min and stained with Hoechst for 10 min at 37 °C. Cells were fixed with 4% PFA and scanned with CellInsight using the 10× objective, or alternatively, the staining solution was replaced with fresh 5% FBS in PBS followed by live cell imaging with CellInsight. Hoechst fluorescence was used to identify the cells and define the nuclear area. The intensity of green fluorescence within the nucleus was quantified as a measure of caspase 3/7 activity.

[2] = tested on: mESC derivatives from day 5 embryoid bodies (D5EBs); assay: MTT assay in D5EBs; format: cell-based, mouse; settings: 24 h
Method: The cells were exposed to the test compounds for 24 h and cytotoxicity was quantified with MTT and LDH assays as described previously (Talman et al. [2011]). For the determination of cell membrane integrity, 50 µl of medium from each well was transferred onto a new 96-well plate followed by addition of 50 µl of substrate solution containing 1.3 mM β-nicotinamide adenine dinucleotide, 660 µM iodonitrotetrazolium, 54 mM L(+)-lactic acid, 280 µM phenazine methosulphate and 0.2 M Tris–HCl (pH 8.0). After a 30-min incubation, the reaction was stopped by adding 50 µl of 1 M acetic acid to each well and absorbance was measured at 490 nm using Victor2 plate reader (PerkinElmer, Turku, Finland). Spontaneous LDH release was measured from untreated cells, maximal LDH release from cells lysed with 0.9% Triton X-100 and background absorbance was measured from wells without cells. After background extraction, cytotoxicity was calculated as follows: cytotoxicity (%) = [(sample − spontaneous LDH release)/(maximal LDH release − spontaneous LDH release)] × 100. For quantification of metabolic activity, 3-(4,5-dimethylthiazol-2-yl)-2,5-diphenyltetrazolium bromide (MTT) was added to the cells at a final concentration of 0.5 mg/ml followed by 2 h incubation in cell culture conditions. The medium was then aspirated and formazan crystals were solubilized in DMSO. Absorbance was measured at 550 nm and absorbance at 650 nm was subtracted as background.
Mouse embryonic stem cells (mESCs), embryoid bodies (EBs), and primary mouse embryonic fibroblasts (MEFs) were used for toxicity experiments. E14 mESCs were cultured in feeder-free conditions on plates coated with 0.1% gelatin in DMEM with 15% FBS, GlutaMax, MEM non-essential amino acids, 2-mercaptoethanol, and leukemia inhibitory factor (LIF). For toxicity assays, the cells were dissociated with TrypLe and plated at 5,000 cells/well in gelatin-coated 96-well plates 24 hours prior to compound exposures. To induce differentiation of mESCs, cells were plated on day 0 in 20 µl hanging drops at 25,000 cells/ml in inverted V-bottom plates in DMEM with 20% FBS and with all above supplements except LIF. On day 2 medium was added to EBs, and the EBs were dissociated with TrypLe and plated at 5,000 cells/well in gelatin-coated 96-well plates on day 5 and exposed to test compounds 24 later. Primary MEFs were cultured on 0.1% gelatin-coated plates in DMEM with 10% […]
1640 without glucose with B-27 supplement in order to purify cardiomyocytes. From day 15 onwards the cells were maintained in RPMI 1640 supplemented with B-27 (RB+ins). Beating hiPSC-CMs were dissociated between days 15 and 22 by incubating them in cell dissociation solution containing 40% enzyme-free cell dissociation buffer, 40% RPMI 1640 and 20% trypsin-EDTA (final trypsin concentration 0.01%) for 7–8 min, whereafter the cells were collected and trypsin was inactivated in RB+ins supplemented with 10% FBS. After centrifugation the cells were suspended in RB+ins with 10% FBS containing 10 µM ROCK inhibitor and seeded at 15,000 cells/well (cytotoxicity assays) or 20,000 cells/well (high content analysis) in gelatin-coated 96-well plates. The cells were let to attach for 2 days at 37 °C in standard conditions, whereafter the compounds were added in RB+ins. In general, the differentiation yielded an almost pure (>95%) cardiomyocyte culture.
Syntheses and characterization of compounds
Materials and general procedures. […]

hiPSCs = assay: High-content analysis of cell viability (MitoTracker) in hiPSCs; format: cell-based, human; settings: 24 h
Method: To study mitochondrial function using high-content analysis, the cells were plated and treated as in proliferation studies, except that MitoTracker Orange CMTMRos solution (400 nM) was added to the cells for the last 30 min at 37 °C. The accumulation of the MitoTracker probe used is dependent upon mitochondrial membrane potential allowing selective staining of active mitochondria. Following fixation and permeabilization, hiPSC-CMs were in addition stained with anti-α-actinin (Alexa Fluor 488) and DAPI. Cells were identified and hiPSC-CMs discriminated from non-myocytes as described above. MitoTracker intensity corresponding to active mitochondria was analysed in the perinuclear area defined by a 3-pixel ring or a 5-pixel ring around the nucleus in hiPSCs and hiPSC-CMs, respectively. The fluorescence intensity threshold was set manually in each experiment based on the assumption that 2% of control hiPSC-CMs and 5% of control hiPSCs were MitoTracker negative.

increase in cells positive for the fluorescent caspase reporter ([1]; vs DMSO): 3.2 fold
SMILES: CCN(CC)c1ccc(NC(=O)c2c(-c3ccccc3)noc2C)cc1 [3i-1000]
reduction in metabolic activity ([2]; at ≥ 10 µM): moderate, but not statistically significant
average MitoTracker intensity in the perinuclear area (hiPSCs; 10 µM): reduced substantially
increase in the percentage of MitoTracker negative cells as compared to DMSO (hiPSCs; 10 µM): 5.7 fold
reduction of hiPSC cell numbers (hiPSCs; 10 µM): 98%

effect on caspase-3/7 activity [1]: no effect
SMILES: CCN(CC)c1ccc(NC(=O)c2c(C)noc2-c2cc(C)on2)cc1 [3i-1047]
reduction in viability ([2]; 30 µM): 38–45%
effect on MitoTracker staining (hiPSCs): did not affect MitoTracker staining

SMILES: CCC(=O)N(Cc1ccc(N(CC)CC)cc1)c1c(-c2ccccc2)noc1C [3i-1120]
sensitivity of cell type to compound (viability) [2]: sensitive

SMILES: CCN(CC)c1ccc(NC(=O)c2cc(C)oc2-c2ccccc2)cc1 [3i-1148]
sensitivity of cell type to compound (viability) [2]: sensitive

SMILES: COc1ccc(-c2cc(N)nn2C(=O)c2c(-c3ccccc3)noc2C)cc1 [3i-1229]
sensitivity of cell type to compound (viability) [2]: sensitive
